This is an account of results in US11753411B2, “Substituted pyrazolo[1,5-a]pyrimidines as TYK2 pseudokinase ligands” (Ventyx Biosciences, Inc., priority 2019, dated 2023).

The structures appear in SMILES notation.

In the assay the test system is IFN-a/Jak1 Tyk2. The experiment in a line: Co-stimulation assay in lysed whole blood: IFNa (JAK1/TYK2) stimulated STAT1 phosphorylation. The assay is classed as cell-based. The conditions noted are these: Homo sapiens, 20 min, 100 ng/mL IFNa (with 10 ng/mL GM-CSF), pSTAT by flow cytometry. The method, then:
Example 12: Co-Stimulation Assay in Lysed Whole Blood; JAK2: GM-CSF Stimulated STAT5 Phosphorylation and JAK1/TYK2 Stimulated STAT1 Phosphorylation Assay
Human Blood Lysis Using Abcam's RBC Lysis Buffer
Dilute RBC lysis buffer to 1× in distilled water. Add 2 mL blood to 38 mL of 1×RBC-lysis buffer. Incubate for 15 mins at RT, in dark. Spin at 300 g, 5 mins, to collect the pellet. Re-lyse if necessary. Re-suspend pellet in 5 mL of cRPMI.
Compound and Cytokine Treatment
Aliquot 80 μL of lysed human blood in to wells of 96 deep-well plate. Add 10 μl of (10× conc.) of different concentrations of compounds to all wells except controls (unstained and unstimulated) and mix it with the help of 100 uL multichannel. Add 10 uL of RPMI media in controls. For dilution of compounds and dilution range please refer Appendix. Incubate on water bath or CO2 incubator for 1 hour at 37° C. Add 10 μl of (10× conc.) of cytokine mix (GM-CSF and IFNa) (final conc.10 ng/mL of GM-CSF and 100 ng/mL of IFNa) to each well except unstimulated and unstained controls and incubate further for 20 minutes on water bath at 37° C.
Add 900 μL of prewarmed 1× Fix/Lyse solution (Appendix) and mix it properly using 1000 μl multichannel, incubate further on water bath at 37° C. for 10 minutes (which includes time of addition). Centrifuge at 800×g for 5 minutes at 40° C.; remove 900 uL of supernatant and add 900 μL of 1×PBS. Centrifuge at 800×g for 5 minutes at 40° C., remove 900 μL of supernatant. Wash one more time with 900 μL of PBS (optional) and resuspend pellets in 100 uL of PBS.
Disrupt the pellet by gentle tapping and resuspend in 1000 μL of BD Phosflow Perm Buffer III and incubate plate on ice for 30 minutes. Centrifuge plate at 800×g for 5 minutes at 40° C. Wash two more times with 1000 μL of BD Pharmingen Stain Buffer.
Disrupt the pellet by gentle tapping. Resuspend pellets in 100 uL of Stain Buffer and add 5 μL of pSTAT5_AF488 Ab and 5 uL of pSTAT_PE in all wells except unstained control and mix properly using 200 μl multichannel, incubate overnight at […]. Add 900 μL of wash buffer and centrifuge at 1800 rpm for 3 minutes at 40° C. Wash one more time with 1000 μL of BD Pharmingen Stain Buffer. Finally resuspend the pellet in 300 uL of BD Pharmingen Stain Buffer. Transfer the cells to 96-well v-bottom plate and acquire the cells in Beckman Coulter CytExpert. Acquiring cells in Flow Cytometer: Keep the threshold value to 250 and cell concentration should not exceed 100-500 cells/μL. Acquire at least 5,000-10,000 cells.
RPMI 1640 Complete Medium: RPMI 1640 media+10% FBS.
Cytokine dilution: 1) GM-CSF Stock at 100 ug/mL. Prepare an intermediate dilution of 1 ug/mL by adding 2 uL of stock into 198 uL of cRPMI. Further dilute to 100 ng/mL by adding 100 uL of the intermediate stock to 900 uL of cRPMI. 2) IFNa Stock at 200 ug/mL. Dilute IFNa stock 1:200 by adding 5 uL of stock into the 1000 uL of 100 ng/mL GM-CSF working stock as above to give a combined working stock of 1000 ng/mL of IFNa and 100 ng/mL GM-CSF (10×). Keep it on ice until used.
Lyse/Fix buffer preparation: Dilute 5× Lyse/Fix buffer to 1× using MQ water and keep at 37° C. until used.
BD Phosflow perm buffer III: Keep on ice/fridge.
On the technique in general: A flow cytometer gives signals particle by particle.

For the compound `CNC(=O)Nc1c(F)nn2c(NC)cc(Nc3cccc4c3OCCO4)nc12` [Compound 110, 1-(5-((2,3-dihydrobenzo[b][1,4]dioxin-5-yl)amino)-2-fluoro-7-(methylamino)pyrazolo[1,5-a]pyrimidin-3-yl)-3-methylurea], the IC50 (in general, the midpoint of a concentration-inhibition curve) is at least 10000 nM.
Consider `CNc1cc(Nc2c(F)ccc3c2OCCO3)nc2c(NC(=O)N[C@@H]3C[C@@H]3F)cnn12` [Compound 175, 1-(5-((6-fluoro-2,3-dihydrobenzo[b][1,4]dioxin-5-yl)amino)-7-(methylamino)pyrazolo[1,5-a]pyrimidin-3-yl)-3-((1R,2S)-2-fluorocyclopropyl)urea], for which the IC50 was at least 10000 nM.
The same measure for `CNC(=O)Nc1cnn2c(NC)cc(Nc3ccc(F)c4c3OCCO4)nc12` [Compound 142, 1-(5-((8-fluoro-2,3-dihydrobenzo[b][1,4]dioxin-5-yl)amino)-7-(methylamino)pyrazolo[1,5-a]pyrimidin-3-yl)-3-methylurea]: under 1000 nM.
As to `CNc1cc(-c2cn(C3CCOCC3)c3ncccc23)nc2c(NC(=O)N[C@H]3CC[C@H]3O)cnn12` [Compound 56, 1-((1S,2R)-2-hydroxycyclobutyl)-3-(7-(methylamino)-5-(1-(tetrahydro-2H-pyran-4-yl)-1H-pyrrolo[2,3-b]pyridin-3-yl)pyrazolo[1,5-a]pyrimidin-3-yl)urea], the concentration for half-maximal inhibition (IC50) was at least 10000 nM.
For the compound `CNc1cc(-c2cn(C(C)C)c3ncccc23)nc2c(NC(=O)N[C@H]3CC[C@H]3O)cnn12` [Compound 57, 1-((1S,2R)-2-hydroxycyclobutyl)-3-(5-(1-isopropyl-1H-pyrrolo[2,3-b]pyridin-3-yl)-7-(methylamino)pyrazolo[1,5-a]pyrimidin-3-yl)urea], the 50% inhibitory concentration (IC50) lay within 1000 to 10000 nM.
The compound `CNC(=O)Nc1cnn2c(NC)cc(Nc3cc(F)cc(F)c3OC)nc12` [Compound 143, 1-(5-((3,5-difluoro-2-methoxyphenyl)amino)-7-(methylamino)pyrazolo[1,5-a]pyrimidin-3-yl)-3-methylurea] registered a half-maximal inhibitory concentration (IC50) of under 1000 nM.
The same measure for `CNC(=O)Nc1cnn2c(NC)cc(Nc3cccnc3OC3CCOCC3)nc12` [Compound 94, 1-methyl-3-(7-(methylamino)-5-((2-((tetrahydro-2H-pyran-4-yl)oxy)pyridin-3-yl)amino)pyrazolo[1,5-a]pyrimidin-3-yl)urea]: 1000 to 10000 nM.
The same measure for `CNc1cc(Nc2cccc3c2OCCC3=O)nc2c(NC(=O)N[C@@H]3C[C@@H]3F)cnn12` [Compound 183, 1-((1R,2S)-2-fluorocyclopropyl)-3-(7-(methylamino)-5-((4-oxochroman-8-yl)amino)pyrazolo[1,5-a]pyrimidin-3-yl)urea]: under 1000 nM; for `CNc1cc(Nc2cc(F)cc3c2OCCO3)nc2c(NC(=O)NCC(N)=O)cnn12` [Compound 118, 2-(3-(5-((7-fluoro-2,3-dihydrobenzo[b][1,4]dioxin-5-yl)amino)-7-(methylamino)pyrazolo[1,5-a]pyrimidin-3-yl)ureido)acetamide]: under 1000 nM; for `CNc1cc(Nc2cccc3c2OCCO3)nc2c(NC(=O)NC3CCC3)cnn12` [Compound 93, 1-cyclobutyl-3-(5-((2,3-dihydrobenzo[b][1,4]dioxin-5-yl)amino)-7-(methylamino)pyrazolo[1,5-a]pyrimidin-3-yl)urea]: under 1000 nM.
`CNc1cc(Nc2cccc3c2OCCO3)nc2c(NC(=O)NC3CC(F)C3)cnn12` (stereo not drawn) [Compound 35, 1-(5-((2,3-dihydrobenzo[b][1,4]dioxin-5-yl)amino)-7-(methylamino)pyrazolo[1,5-a]pyrimidin-3-yl)-3-(3-fluorocyclobutyl)urea] had a half-maximal inhibitory concentration (IC50) of under 1000 nM.
The same measure for `CNc1cc(Nc2cc(Cl)cc3c2OCCO3)nc2c(NC(=O)NC3CC3)cnn12` [Compound 85, 1-(5-((7-chloro-2,3-dihydrobenzo[b][1,4]dioxin-5-yl)amino)-7-(methylamino)pyrazolo[1,5-a]pyrimidin-3-yl)-3-cyclopropylurea]: under 1000 nM.
